“Also recorded” adds a separate entry of the source.
Assay: fluorescence emission spectrum of encapsulated versus free substance (integrity after encapsulation)
Assay type: physicochemical
Details: encapsulated vs free state
Description: Both images have been obtained using an AxioObserver Z1M (Zeiss Microscope) optical microscope.
The scanning and fluorescence images have been taken using a Hitachi S-570 scanning microscope and an AxioObserver Z1M (Zeiss 25 Microscope) optical microscope, respectively. The fluorescence intensities have been obtained using an Applied Photophysics fluorometer with a Quantel pulsed laser.

Which “modification or degradation during the encapsulation process” value does the source give for `COc1cccc2c1C(=O)c1c(O)c3c(c(O)c1C2=O)C[C@@](O)(C(=O)CO)C[C@@H]3O[C@H]1C[C@H](N)[C@H](O)[C@H](C)O1` [doxorubicin] here?
Its value is “has not been modified; also recorded: has not been modified or degraded”.
